US6696436B1, “B-homoestra-1,3,5(10)-trienes as modulators of tubulin polymerization” (The United States of America as represented by the …, priority 1999, dated 2004)
Entries after “also recorded” stand apart in the source; their conditions may differ.

Assays:
[1] = test system: chick embryo chorioallantoic membrane; assay: Chick embryo chorioallantoic membrane (CAM) assay; assay type: in vivo; conditions: 100 mg disk, after 48 hours
Procedure: Anti-angiogenic activity is evaluated in vivo by testing the ability of a compound to inhibit the proliferation of new blood vessel cells (angiogenesis). A suitable assay is the chick embryo chorioallantoic membrane (CAM) assay described by Crum et al., Science 230:1375 (1985). See also, U.S. Pat. No. 5,001,116, which is hereby incorporated by reference in its entirety. Briefly, fertilized chick embryos are removed from their shell on day 3 or 4, and a methylcellulose disc containing the drug is implanted on the chorioallantoic membrane. The embryos are examined 48 hours later and, if a clear avascular zone appears around the disc, the diameter of that zone is measured.

tubulin [2] = test system: T1, tubulin; assay: Tubulin polymerization inhibition in vitro (turbidity at 350 nm); assay type: biochemical; conditions: for IC50: 1.0 M glutamate, 10 μM tubulin
T1 construct: other: 1.0 M glutamate, 10 μM tubulin; Effect on tubulin polymerization / microtubule assembly
Procedure: Microtubule assembly is followed in a temperature controlled recording spectrophotometer. For details and a discussion, see R. D'Amato et al., Proc Natl Acad Sci USA, 91:3964-3968 (1994).
A typical reaction mixture, which will have a final reaction volume of […], contains 1.0 M monosodium glutamate (pH 6.6), 1.0 mg/ml (10 μM) tubulin, 1.0 MM MgCl2, 4% (v/v) dimethylsulfoxide, and a compound to be tested at the desired concentration (typically 0.1 to 100 μM). The reaction mixtures are incubated for 15 min. at 37° C. and then chilled on ice. After addition of 10 μl 12.5 mM GTP (and, optionally, 0.33 mg/ml microtubule-associated proteins, or MAPs) to initiate polymerization, each reaction mixture is transferred to a cuvette at 0° C., and a baseline established. At time zero, the temperature controller of the spectrophotometer is set to a target temperature, typically between 25 and 37° C. Microtubule assembly is monitored by observing an increase in turbidity at 350 nm as the temperature of the reaction mixture rises to the set target temperature.
The results are presented in Table 1 as IC50 values (μM) for inhibition of tubulin polymerization. Alternatively, inhibition of microtubule assembly can be detected by transmission electron microscopy, as described in U.S. Pat. No. 5,504,074 which is hereby incorporated by reference in its entirety.

tubulin [3] = test system: T2, tubulin; assay: Enhancement of glutamate- or MAP-induced tubulin assembly, turbidimetric curves (FIGS. 4 and 5); assay type: biochemical; conditions: for Effect on MAP-induced tubulin assembly: 0.75 mg/ml MAPs, 1.0 mg/ml tubulin, 25° C.
T2 construct: Activity in room temperature assay; other: no polymerization in the absence of drug; other: GTP-only system, critical concentrations
Procedure: In those cases where acceleration of tubulin polymerization is observed, an IC50 value for inhibition of polymerization is of course not derivable. Results for such compounds may be presented in the form of turbidimetric curves, e.g. as presented in FIGS. 4 and 5 for representative compounds 13 and 18.
FIG. 4: Each reaction mixture contained 0.8 M glutamate (pH 6.6), 0.4 mM GTP, 12 μM (1.2 mg/ml) tubulin, 4% (v/v) dimethyl sulfoxide, and compound 13 or 18 as indicated. Baselines were established at 0°, and at time zero the temperature controller was set at 26°. At the time indicated by the dashed line, the temperature controller was set at 0°. A. Curve 1, no drug; curve 2, 2 μM compound 13; curve 3, 5 μM 7; curve 4, 10 μM 7; curve 5, 40 μM 7; curve 6, 40 μM 14. B. Curve 1, no drug; curve 2, 2 μM compound 18; curve 3, 5 μM 18; curve 4, 10 μM 18; curve 5, 40 μM 18.
FIG. 5: Each reaction mixture contained 0.1 M Mes (pH 6.9 with NaOH in 0.5 M stock solution), 0.1 mM GTP, 10 μM (1.0 mg/ml) tubulin, 0.75 mg/ml heat-treated MAPs, 4% dimethyl sulfoxide, and drug as indicated. […] There was no change in turbidity in any reaction mixture. At this point the temperature controller was set at 10°, and subsequent temperature changes, as indicated, were made at the times indicated by the vertical dashed lines. Curve 1, no drug; curve 2, 10 μM paclitaxel; curve 3, 10 μM compound 13; curve 4, 20 μM 7; curve 5, 40 μM 7; curve 6, 10 μM compound 18.

tubulin [4] = test system: T2, tubulin; assay: Tubulin polymerization inhibition in vitro (turbidity at 350 nm); assay type: biochemical; design: key: *: Accelerates tubulin polymerization; conditions: no IC50 derivable
tubulin [5] = test system: T2, tubulin; assay: Enhancement of glutamate- or MAP-induced tubulin assembly, turbidimetric curves (FIGS. 4 and 5); assay type: biochemical
tumor cells = assay: Inhibition of cell growth in the NCI Developmental Therapeutics Program tumor cell screen; assay type: cell-based; conditions: mean graph midpoint for all cell lines tested
Procedure: The compounds of the invention were tested for inhibition of cell growth in the established tumor cell screen of the National Cancer Institute Developmental Therapeutics Program. See Boyd et al., Drug Dev. Res., 34:91-109 (1995). Results are presented in Table 1 as the “MGM” values (mean graph midpoint, in μM, for all cell lines tested).

tubulin [6] = test system: T2, tubulin; assay: Critical concentration of tubulin for assembly, turbidimetric (FIG. 6); assay type: biochemical
Procedure: FIG. 6 presents critical concentrations, obtained at 30° C., of tubulin with paclitaxel and compound 13. A: MAPs -and GTP-dependent assembly without drug and in the presence of 10 μM paclitaxel or 10 μM 13. B: GTP-dependent, MAP-independent assembly with 10 μM paclitaxel or 10 μM 13.
Measurement of the critical concentration with and without MAPs with paclitaxel, and again with 13, was therefore carried out to provide some idea of the comparative activity of these agents. The data are presented in FIG. 6, which yield critical concentrations, obtained at 30° C., of 1.4, 0.06, and 0.50 mg/ml for MAP-and GTP-dependent assembly without drug and in the presence of 10 μM paclitaxel or 10 μM 13, respectively, and 0.20 and 1.4 mg/ml for GTP-dependent, MAP-independent assembly with 10 μM paclitaxel or 10 μM 13. […] (A constant weight ratio of MAPs to tubulin of 1:3 was used, because the suboptimal concentration of MAPs caused greater differences in the critical concentrations obtained.) Reaction mixtures (0.25 ml) contained 0.1 M Mes (pH 6.9), 100 μM GTP, 4% dimethyl sulfoxide, the indicated tubulin concentration (with heat-treated MAPs in 1:3 weight ratio to the tubulin, panel A only), and either 10 μM paclitaxel (▴), 10 μM compound 13 (◯), or no drug (▾). Cuvette contents were equilibrated at 0°, drugs were added, temperature was jumped to 30° (about one min), and the turbidity changes after a 20 min incubation measured.

tubulin [7] = test system: T2, tubulin; assay: Polymer morphology by electron microscopy; assay type: biochemical; conditions: 40 μM 13 or 10 μM paclitaxel
Source text: It was possible that compounds 13 and 18 were not actually acting like paclitaxel in enhancing microtubule assembly and in stabilizing the microtubules formed in the course of the turbidity studies shown in FIG. 4, but that these agents were causing formation of polymers of aberrant morphology and temperature stability different from microtubules, such as occurs with vinca alkaloids. Polymer morphology was examined by electron microscopy. […] Even more important, when the reaction mixtures were returned to 0° C. for 15 min, no microtubules were visualized on grids prepared from the reaction mixture without drug.

| SMILES | IC50 (tubulin [2]) [µM] | melting point [°C] | Cytotoxicity (MGM μM) (tumor cells) [µM] | further results |
| --- | --- | --- | --- | --- |
| COc1cc2c(cc1O)CC[C@@H]1[C@@H]2CC[C@]2(C)[C@@H](O)CC[C@@H]12 [2-methoxyestradiol] | – | – | – | Inhibition of cell mitosis and growth of new blood vessels [1]: inhibit cell mitosis and the growth of new blood vessels |
| CCOc1cc2c(cc1O)CC(=O)CC1C2CCC2(C)C(O)CCC12 (stereo not drawn) [Compound 9, B-Homo-3,170β-dihydroxy-2-ethoxyestra-1,3,5(10)-triene-7-one] | > 40 | 210 to 212 | – | – |
| CCOc1cc2c(cc1O)CC(=NNS(=O)(=O)c1ccc(C)cc1)CC1C2CCC2(C)C(O)CCC12 (stereo not drawn) [Compound 10, B-Homo-2-ethoxy-3,17β-dihydroxyestra-1,3,5(10)-triene-7-one toluenesulfonyl-hydrazone] | > 40 | – | – | – |
| CCOc1cc2c(cc1OC(C)=O)CCCC1C2CCC2(C)C(OC(C)=O)CCC12 (stereo not drawn) [Compound 12, B-Homo-3,17β-diacetoxy-2-ethoxyestra-1,3,5(10)-triene] | > 40 | 98 to 100 | – | – |
| CCOc1cc2c(cc1O)C(=O)CC[C@@H]1[C@@H]2CC[C@]2(C)[C@@H](OC(C)=O)CC[C@@H]12 [Compound 18, B-Homo-17β-acetoxy-2-ethoxy-3-hydroxyestra-1,3,5(10)-trien-6-one] | – | – | – | Effect on tubulin polymerization / microtubule assembly (tubulin [2]): stimulate microtubule assembly; Effect on glutamate- and MAP-induced tubulin assembly (tubulin [3]): activity was largely retained; Effect on MAP-induced tubulin assembly (tubulin [3]): enhanced tubulin assembly; also recorded: less stimulatory than 13; also recorded: significantly less than that of paclitaxel; Tubulin polymerization inhibition, symbol instead of IC50 (tubulin [4]): *; Tubulin assembly in the absence of GTP (tubulin [5]): has not been observed |
| CCOc1cc2c(cc1OC(C)=O)C(=O)CCC1C2CCC2(C)C(O)CCC12 (stereo not drawn) [Compound 19, B-Homo-3-Acetoxy-2-ethoxy-17β-hydroxyestra-1,3,5(10)-trien-6-one] | > 40 | – | – | Effect on glutamate- and MAP-induced tubulin assembly (tubulin [3]): inactive |
| CCOc1cc2c(cc1O)C(=NO)C[C@@H]1[C@@H]2CC[C@]2(C)[C@@H](OC(C)=O)CC[C@@H]12 [Compound 27, 17β-Acetoxy-2-ethoxy-6-hydroximinoestra-1,3,5(10)-triene-3-ol] | > 40 | 226 to 227 | 0.567 | – |
| CCOc1cc2c(cc1OC(C)=O)N(C(C)=O)CCC1C2CCC2(C)C(OC(C)=O)CCC12 (stereo not drawn) [Compound 31, B-Homo-6-acetyl-6-aza-3,17β-diacetoxy-2-ethoxyestra-1,3,5(10)-triene] | > 40 | – | 38.0 | – |
| CCOc1cc2c(cc1O)N(C(C)=O)CCC1C2CCC2(C)C(O)CCC12 (stereo not drawn) [Compound 32, B-Homo-6-acetyl-6-aza-2-ethoxyestra-1,3,5(10)-triene-3,17β-diol] | 25 | 189 to 191 | 35.5 | Effect on tubulin polymerization / microtubule assembly (tubulin [2]): inhibit tubulin polymerization |
| CC(=O)O[C@H]1C(=O)[C@@]2(C)[C@H]([C@H](OC(=O)c3ccccc3)[C@]3(O)C[C@H](OC(=O)[C@H](O)[C@@H](NC(=O)c4ccccc4)c4ccccc4)C(C)=C1C3(C)C)[C@]1(OC(C)=O)CO[C@@H]1C[C@@H]2O [paclitaxel, Paclitaxel, reference compound] | – | – | – | Critical concentration of tubulin, MAP- and GTP-dependent assembly (tubulin [6]; 30° C., 10 μM drug, MAPs:tubulin 1:3 by weight): 0.06 mg/mL; Critical concentration of tubulin, GTP-dependent, MAP-independent assembly (tubulin [6]; 30° C., 10 μM drug, no MAPs): 0.20 mg/mL; Affinity for tubulin polymers relative to compound 13 (tubulin [6]; from critical concentrations): 7-8 fold; Effect on MAP-induced tubulin assembly (tubulin [3]): much more extensive than that with compound 13; Cold stable microtubules after return to 0° C. for 15 min (tubulin [7]): abundant cold stable microtubules were observed; Assembly reaction when either MAPs or GTP was omitted (tubulin [5]; 10 μM tubulin, 40 μM compound 13 or 10 μM paclitaxel): a reaction was observed in both cases |

Second part, led by results:

| IC50 (tubulin [2]) [µM] | melting point [°C] | SMILES | Cytotoxicity (MGM μM) (tumor cells) [µM] | further results |
| --- | --- | --- | --- | --- |
| 1.3 | 86 to 88 | CCOc1cc2c(cc1O)CCCC1C2CCC2(C)C(O)CCC12 (stereo not drawn) [Compound 11, B-Homo-2-ethoxy-3.17β-estradiol] | – | Effect on tubulin polymerization / microtubule assembly (tubulin [2]): inhibit tubulin polymerization |
| > 40 | – | CCOc1cc2c(cc1O)C(=O)CCC1C2CCC2(C)C(O)CCC12 (stereo not drawn) [Compound 14, B-Homo-2-ethoxy-6-oxoestra-1,3,5(10)-trien-3,17β-diol] | – | Effect on glutamate- and MAP-induced tubulin assembly (tubulin [3]): inactive |
| 4 | 222 to 223 | CCOc1cc2c(cc1O)NC(=O)CC1C2CCC2(C)C(O)CCC12 (stereo not drawn) [Compound 29, B-Homo-6-aza-2-ethoxy-3,17β-dihydroxyestra-1,3,5(10)-trien-7-one] | 16.2 | Effect on tubulin polymerization / microtubule assembly (tubulin [2]): inhibit tubulin polymerization |
| > 40 | – | CCOc1cc2c(cc1O)NCCC1C2CCC2(C)C(O)CCC12 (stereo not drawn) [Compound 30, B-Homo-6-aza-2-ethoxyestra-1,3,5(10)-triene-3,17β-diol] | 49.0 | – |
| > 40 | – | CCOc1cc2c(cc1O)N(CC)CCC1C2CCC2(C)C(O)CCC12 (stereo not drawn) [Compound 33, B-Homo-6-aza-2-ethoxy-6-ethylestra-1,3,5(10)-triene-3,17β-diol] | 50.1 | – |
